One assay addresses T1, IRAK4 (Homo sapiens, UniProt Q9NWZ3).
T1 sequence (Q9NWZ3 1-460): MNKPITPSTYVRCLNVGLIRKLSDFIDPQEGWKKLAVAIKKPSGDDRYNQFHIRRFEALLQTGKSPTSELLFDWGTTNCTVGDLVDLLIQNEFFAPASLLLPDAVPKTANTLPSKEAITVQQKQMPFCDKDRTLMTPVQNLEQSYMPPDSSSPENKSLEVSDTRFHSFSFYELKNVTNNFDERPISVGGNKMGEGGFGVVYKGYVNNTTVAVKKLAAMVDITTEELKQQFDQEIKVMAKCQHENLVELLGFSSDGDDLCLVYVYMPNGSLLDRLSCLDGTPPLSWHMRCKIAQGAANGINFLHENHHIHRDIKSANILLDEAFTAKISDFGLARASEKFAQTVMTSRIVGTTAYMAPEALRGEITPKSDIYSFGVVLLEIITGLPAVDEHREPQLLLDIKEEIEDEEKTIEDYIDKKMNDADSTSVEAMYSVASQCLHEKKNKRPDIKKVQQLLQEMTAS
Description: RBC HotSpot Kinase Assay, IRAK4. To be noted: isolated kinase enzyme, 33P-ATP, P81 filter-binding. The arrangement: purchased Reaction Biology (RBC HotSpot). It counts as biochemical. In short, it runs like this: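 Radiometric filter-binding activity assay with isolated recombinant kinase (construct may be truncated or catalytic domain only) in 20 mM Hepes pH 7.5, 10 mM MgCl2, 1 mM EGTA, 2 mM DTT, 1% DMSO. Compound preincubated 20 min with kinase/substrate; reaction started with 33P-ATP, run 2 h at room temperature.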

Assay [1] concerns MOLM14-D835Y cells (FLT3-ITD (D835Y) mutant). Nature of the assay: Combination drug screening with venetoclax in MOLM14 (D835Y) cells (Cell Titre Glo, 10 × 10). It counts as cell-based. More on the design: Excess HSA (sum excess HSA score, combination with venetoclax): scale not given here. How it is done:
These assays were performed using the Cell Titre Glo assay, measured at 48 hours.
A smaller concentration indicates higher potency to synergize with Venetoclax.

A further assay addresses T2, IRAK1 (Homo sapiens, UniProt P51617).
T2 construct: purchased Reaction Biology (RBC HotSpot)
Nature of the assay: RBC HotSpot Kinase Assay, IRAK1. It counts as biochemical. To be noted: isolated kinase enzyme, 33P-ATP, P81 filter-binding. In short, it runs like this: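 Reactions ran in 20 mM Hepes (pH 7.5) containing 10 mM MgCl2, 1 mM EGTA, 0.1 mM Na3VO4, 2 mM DTT, 0.02 mg/ml BSA, 0.01% Brij35 and 1% DMSO, plus required cofactors. Functional activity readout on the expressible enzyme form, sometimes C-terminally truncated or lacking receptor regulatory regions.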

The test system of another assay is MOLM14 F691L cells. Nature of the assay: MOLM14 F691L cell viability assay (Cell Titer Glo). It counts as cell-based. To be noted: Homo sapiens, MOLM-14; cell viability, Cell Titer Glo, 48 hours; read-out: MOLM14 F691L IC50. In short, it runs like this: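 Luminescent ATP read-out (CellTiter-Glo, 15 min room temperature) taken 48 h after compound addition. Cells were MOLM14 carrying FLT3 D835Y or F691L mutations, plated at 1000 cells per well.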
On the technique in general: Cellular ATP, detected with luciferase, serves as a proxy for viable cell number.

T2 sequence (P51617 whole entry): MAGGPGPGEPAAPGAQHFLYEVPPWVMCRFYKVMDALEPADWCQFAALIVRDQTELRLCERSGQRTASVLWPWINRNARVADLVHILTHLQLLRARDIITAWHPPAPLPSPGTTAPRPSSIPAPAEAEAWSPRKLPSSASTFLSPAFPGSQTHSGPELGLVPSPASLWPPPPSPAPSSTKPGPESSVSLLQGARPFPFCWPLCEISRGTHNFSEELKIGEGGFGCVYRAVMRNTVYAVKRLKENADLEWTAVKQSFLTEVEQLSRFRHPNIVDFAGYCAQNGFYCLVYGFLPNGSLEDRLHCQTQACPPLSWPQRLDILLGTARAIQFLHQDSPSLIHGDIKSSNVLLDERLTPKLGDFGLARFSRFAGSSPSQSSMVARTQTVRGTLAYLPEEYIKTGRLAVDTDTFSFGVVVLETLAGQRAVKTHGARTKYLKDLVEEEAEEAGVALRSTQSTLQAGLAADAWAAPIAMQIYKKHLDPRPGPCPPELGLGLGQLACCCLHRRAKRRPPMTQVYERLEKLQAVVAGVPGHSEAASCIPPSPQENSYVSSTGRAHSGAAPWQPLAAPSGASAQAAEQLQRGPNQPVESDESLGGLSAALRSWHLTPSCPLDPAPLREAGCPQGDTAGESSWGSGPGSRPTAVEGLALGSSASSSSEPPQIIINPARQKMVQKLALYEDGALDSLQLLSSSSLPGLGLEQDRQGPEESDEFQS

A word on the IC50: it is the point on the concentration scale where inhibition reaches its midpoint. `CC(C)(O)c1cn2c(-c3nc(N[C@H]4CNCC[C@@H]4F)ncc3F)cnc2cn1` [Compound 100a, 2-(3-(5-fluoro-2-(((3S,4S)-4-fluoropiperidin-3-yl)amino)pyrimidin-4-yl)imidazo[1,2-a]pyrazin-6-yl)propan-2-ol]: the half-maximal inhibitory concentration (IC50) on IRAK4 worked out at 2 nM; at IRAK1, 24 nM; in the assay with MOLM14 F691L cells, 603 nM. In addition, the “Excess HSA (sum excess HSA score, combination with venetoclax)” value in assay [1] (10 × 10 dataset, Cell Titre Glo at 48 hours, optimal of 4 dose combinations, negative = synergy) is on record as −1548. The “Concentration of a compound of the disclosure, or gilteritinib, needed to decrease the 62.5 nM Ven response to <10% in MOLM14(D835Y) cells” value in assay [1] (combination with 62.5 nM Venetoclax, Cell Titer Glo, 48 hours, response <10%) is 625 nM.

For the origin of these results see patent publication US20260226048A1, “MULTI-CYCLIC IRAK AND FLT3 INHIBITING COMPOUNDS AND USES THEREOF” (CHILDREN'S HOSPITAL MEDICAL CENTER, priority 2023, published 2026).
